Experimental findings from PMC10011573, “Development of novel broad-spectrum antimicrobial lipopeptides derived from plantaricin NC8 β” (Scientific Reports, 2023) are described below.

Data set [1] is described as follows: Carboxyfluorescein release assay, mammalian liposome model. The data set is classed as biochemical. Particulars: 65:5:30 POPC:POPS:Chol. liposomes, 25 µM lipid, 10 mM PBS pH 7.4, 10^–5–10^2 µM peptide, 60 min, fluorescence, Hill fit, n = 3; read-out: EC50 Mammalial (concentration that triggers 50% CF release). Put shortly: (§1)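 CF-loaded extruded 0.1 µm unilamellar liposomes: bacterial POPC:POPG 75:25, mammalian POPC:POPS:Chol 65:5:30. Liposomes at 25 µM lipid in PBS pH 7.4 incubated with peptide (10^–5–10^2 µM; n = 3), fluorescence read every 2.5 min for 1 h. Release normalized to 1% Triton X-100; EC50 from Hill-1 fit.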

A short description of data set [2]: Carboxyfluorescein release assay, bacterial liposome model. In kind it is biochemical. Conditions: 75:25 POPC:POPG liposomes, 25 µM lipid, 10 mM PBS pH 7.4, 10^–5–10^2 µM peptide, 60 min, fluorescence, Hill fit, n = 3; read-out: EC50 Bacterial (concentration that triggers 50% CF release). Put shortly:
as §1

Another data set has as its system human erythrocytes. As to the kind of experiment: Hemolytic activity. The data set is classed as cell-based. Conditions: 15% suspension in PBS, 1 h, 37 °C, absorbance 540 nm, highest tested concentration 100 µM.

SMILES strings stand for the structures. pEC50: −log10 of the molar value. Residues, ends and D or L forms follow the SMILES beside them. *: point of attachment. Pentanoyl = CCCCC(=O)*

In the case of `CCCCC(=O)N[C@@H](CC(C)C)C(=O)NCC(=O)N[C@H](C(=O)N[C@@H](CCCCN)C(=O)N[C@H](C(=O)N[C@@H](CC(C)C)C(=O)N[C@@H](Cc1c[nH]c2ccccc12)C(=O)N[C@@H](CO)C(=O)N[C@@H](C)C(=O)N[C@@H](Cc1ccc(O)cc1)C(=O)N[C@@H](CCCCN)C(=O)N[C@@H](Cc1c[nH]cn1)C(=O)N[C@@H](CCCNC(=N)N)C(=O)N[C@@H](CCCCN)C(=O)N[C@H](C(=O)N[C@H](C(N)=O)[C@@H](C)CC)[C@@H](C)O)[C@@H](C)CC)[C@@H](C)CC` [L-6-C5] (Pentanoyl-LGIKILWSAYKHRKTI-NH2), the pEC50 in data set [1] was 4.98; in data set [2], 6.96. The “HC, hemolytic concentration at 5% hemolytic activity” value in the data set on human erythrocytes was more than 100 µM.
